According to ChEMBL document CHEMBL1201862, “PubChem BioAssay data set” (2004):
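Growth conditions: 96-well plates. Treatment: test compound, 48 hours, 5 concentrations. Analysis: linear interpolation between bracketing concentrations; unreached endpoints set to highest concentration. GI50 is the concentration that inhibits growth by half.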 The source made the active and inactive calls. No stated cut-off is given here; in the data, active = GI50 up to about 1.1 µM and inactive = higher.

Key:
Test in all cases: NCI-60 cell line screen, 48 h
HOP-62 = test system: HOP-62
ACHN = test system: ACHN
EKVX = test system: EKVX
HT-29 = test system: HT-29
SNB-75 = test system: SNB-75
OVCAR-3 = test system: OVCAR-3
K562 = test system: K562
LOX IMVI = test system: LOX IMVI
SK-MEL-5 = test system: SK-MEL-5
CAKI-1 = test system: CAKI-1
DLD-1 = test system: DLD-1
PC-3 = test system: PC-3
Hs-578T = test system: Hs-578T
MDA-MB-231 = test system: MDA-MB-231
HCC 2998 = test system: HCC 2998
HCT-15 = test system: HCT-15
BT-549 = test system: BT-549
NCI/ADR-RES = test system: NCI/ADR-RES
MDA-N = test system: MDA-N
MCF7 = test system: MCF7

Row | Structure (SMILES) | GI50 (HOP-62) | GI50 (ACHN) | GI50 (EKVX) | GI50 (HT-29) | GI50 (SNB-75) | GI50 (OVCAR-3) | GI50 (K562) | GI50 (LOX IMVI) | GI50 (SK-MEL-5) | GI50 (CAKI-1) | GI50 (DLD-1) | GI50 (PC-3) | GI50 (Hs-578T) | GI50 (MDA-MB-231) | GI50 (HCC 2998) | GI50 (HCT-15) [µM] | GI50 (BT-549) | GI50 (NCI/ADR-RES) | GI50 (MDA-N) | GI50 (MCF7)
1 | CCCCCCCCCCCCC(=O)CCCCC(=O)O | 18.3 µM (inactive) | 26.5 µM (inactive) | 33.3 µM (inactive) | 15.8 µM (inactive) | 23.4 µM (inactive) | 31.8 µM (inactive) | 16.2 µM (inactive) | 21 µM (inactive) | 18.2 µM (inactive) | 32.5 µM (inactive) | 17.9 µM (inactive) |  |  |  |  |  |  |  |  | 
2 | CN(CC(=O)O)c1ccc(/C=C/c2ccnc3ccccc23)cc1 | 31.3 µM (inactive) | 34.4 µM (inactive) | 4.47 µM (inactive) | 23 µM (inactive) | 24.8 µM (inactive) | 27.9 µM (inactive) | 23.7 µM (inactive) | 22.3 µM (inactive) | 16 µM (inactive) | 18.5 µM (inactive) |  | 27.4 µM (inactive) | 25.4 µM (inactive) | 27 µM (inactive) | 25.4 µM (inactive) | 31.9 | 16.3 µM (inactive) | 29.2 µM (inactive) | 12.5 µM (inactive) | 5.02 µM (inactive)
3 | OC(Cn1cncn1)(Cn1cncn1)c1ccc(Cl)cc1Cl | > 100 µM (inactive) | > 100 µM (inactive) |  | > 100 µM (inactive) | > 100 µM (inactive) | > 100 µM (inactive) | > 100 µM (inactive) | > 100 µM (inactive) | > 100 µM (inactive) | > 100 µM (inactive) | > 100 µM (inactive) |  |  |  |  | > 100 |  |  |  | 
4 | CCCCCCCCCCCC(=O)N(CCCCCCCCC)CC(O)C(O)C(OC1OC(CO)C(O)C(O)C1O)C(O)CO (stereo not given) | 20.6 µM (inactive) | 17.7 µM (inactive) | 17.3 µM (inactive) | 19.2 µM (inactive) | 18.5 µM (inactive) | 20.2 µM (inactive) | 26.9 µM (inactive) | 20.9 µM (inactive) | 17.4 µM (inactive) | 20.7 µM (inactive) |  | 19.2 µM (inactive) | 35.3 µM (inactive) | 26 µM (inactive) | 16.9 µM (inactive) | 16.9 | 19.4 µM (inactive) | 20.1 µM (inactive) | 20.4 µM (inactive) | 35.8 µM (inactive)
5 | Cn1c(-c2ccccc2)cc(-c2cccs2)c1-c1ccsc1 | > 100 µM (inactive) | > 100 µM (inactive) | > 100 µM (inactive) | > 100 µM (inactive) | > 100 µM (inactive) | > 100 µM (inactive) | > 100 µM (inactive) | > 100 µM (inactive) | > 100 µM (inactive) | > 100 µM (inactive) |  | > 100 µM (inactive) | > 100 µM (inactive) | > 100 µM (inactive) | > 100 µM (inactive) | > 100 | > 100 µM (inactive) | > 100 µM (inactive) | > 100 µM (inactive) | 47.4 µM (inactive)
6 | O=S(=O)(O)c1ccc(Nc2ccnc3cc(Cl)ccc23)cc1 | > 100 µM (inactive) | > 100 µM (inactive) | > 100 µM (inactive) | > 100 µM (inactive) | > 100 µM (inactive) | > 100 µM (inactive) | > 100 µM (inactive) | > 100 µM (inactive) | > 100 µM (inactive) | > 100 µM (inactive) |  | > 100 µM (inactive) | > 100 µM (inactive) | > 100 µM (inactive) | > 100 µM (inactive) | > 100 | > 100 µM (inactive) | > 100 µM (inactive) | > 100 µM (inactive) | > 100 µM (inactive)
7 | CNS(=O)(=O)NN(C)S(=O)(=O)c1ccc(C)cc1 | > 100 µM (inactive) | > 100 µM (inactive) | > 100 µM (inactive) | > 100 µM (inactive) |  | > 100 µM (inactive) | > 10 µM (inactive) |  | > 100 µM (inactive) | > 100 µM (inactive) | > 100 µM (inactive) |  |  |  | > 100 µM (inactive) |  |  |  |  | 
8 | COc1ccc(C(=O)CCN(C)C)c2ccccc12 | 24.1 µM (inactive) | 18.3 µM (inactive) | 24.7 µM (inactive) | 25.7 µM (inactive) | 23 µM (inactive) | 16.3 µM (inactive) | 29.7 µM (inactive) | 18.9 µM (inactive) | > 56.8 µM (inactive) | 6.78 µM (inactive) |  | 17.6 µM (inactive) | 23.6 µM (inactive) | 19.1 µM (inactive) | 18 µM (inactive) | 21.4 | 19.3 µM (inactive) | 35.9 µM (inactive) | 21.1 µM (inactive) | 4.63 µM (inactive)
9 | ClC1=C(Cl)C(Cl)(Cl)SS1 | > 10 µM (inactive) | 5.98 µM (inactive) | > 10 µM (inactive) | > 10 µM (inactive) | > 10 µM (inactive) | > 5.56 µM (inactive) | 3.17 µM (inactive) | > 4.15 µM (inactive) | > 7.01 µM (inactive) | 2.96 µM (inactive) |  | > 10 µM (inactive) | > 10 µM (inactive) | > 10 µM (inactive) | > 10 µM (inactive) | > 7.82 | > 8.73 µM (inactive) | > 7.21 µM (inactive) | 9.68 µM (inactive) | > 5.27 µM (inactive)
10 | COCN1C(=O)[C@@H]2CCCN2C(=O)c2ccc(N)cc21 | > 100 µM (inactive) | > 100 µM (inactive) | > 100 µM (inactive) | > 100 µM (inactive) | > 100 µM (inactive) | > 100 µM (inactive) | > 100 µM (inactive) | > 100 µM (inactive) | > 100 µM (inactive) | > 100 µM (inactive) |  | > 100 µM (inactive) | > 100 µM (inactive) | > 100 µM (inactive) | > 100 µM (inactive) | > 100 | > 100 µM (inactive) | > 100 µM (inactive) | > 100 µM (inactive) | > 100 µM (inactive)
11 | CN(C)/C=N/S(=O)(=O)c1nn2c(C=O)c(-c3cc4ccccc4oc3=O)nc2s1 | > 30.2 µM (inactive) | 1.77 µM (inactive) | 10.4 µM (inactive) | 0.918 µM (active) | 27.4 µM (inactive) | 3.08 µM (inactive) | 1.58 µM (inactive) | 2.65 µM (inactive) | 2.77 µM (inactive) | 1.75 µM (inactive) |  | 12.4 µM (inactive) | 15.6 µM (inactive) | 10.7 µM (inactive) | 19.5 µM (inactive) | 3.4 | 8.65 µM (inactive) | 16.4 µM (inactive) | 4.46 µM (inactive) | 3.54 µM (inactive)
12 | Cc1c2cnccc2c(C)c2c1[nH]c1ccc(O)cc12 | 1.02 µM (active) | 1.32 µM (inactive) | 2.88 µM (inactive) | 1.51 µM (inactive) | 1.87 µM (inactive) | 1.13 µM (inactive) | 3.17 µM (inactive) | 0.342 µM (active) | > 10 µM (inactive) | 1.43 µM (inactive) |  | 2.15 µM (inactive) | > 10 µM (inactive) | 1.57 µM (inactive) | 1.57 µM (inactive) | 0.971 | 6.01 µM (inactive) | 0.693 µM (active) | 2.79 µM (inactive) | 0.914 µM (active)
13 | Nc1nc(SC/C=C/c2ccccc2)c2[nH]cnc2n1 | 83.2 µM (inactive) | 97.9 µM (inactive) | > 100 µM (inactive) | > 100 µM (inactive) | 28.6 µM (inactive) | 30.4 µM (inactive) | 63.2 µM (inactive) | 53.1 µM (inactive) | > 100 µM (inactive) | 38.7 µM (inactive) |  | > 100 µM (inactive) | 16.7 µM (inactive) | > 100 µM (inactive) | > 100 µM (inactive) | 32.8 | 28.2 µM (inactive) | 48.9 µM (inactive) | > 100 µM (inactive) | > 100 µM (inactive)
14 | CC(=O)OCC1OC(OC2CC3C(C)(C)C(OC(C)=O)CC[C@]3(C)C3CCC45CC4(CCC5[C@@H](C)C[C@H](O)C(O)C(C)(C)O)[C@]23C)C(O)C(O)C1O (stereo not given in full) | > 10 µM (inactive) | > 10 µM (inactive) | > 10 µM (inactive) | > 10 µM (inactive) | > 10 µM (inactive) | > 10 µM (inactive) | 9.12 µM (inactive) | > 10 µM (inactive) | > 10 µM (inactive) | > 10 µM (inactive) |  | > 10 µM (inactive) | > 10 µM (inactive) | > 10 µM (inactive) | > 10 µM (inactive) | > 10 | > 10 µM (inactive) | > 10 µM (inactive) | > 10 µM (inactive) | 6.61 µM (inactive)
15 | COc1ccc2oc(S(=O)(=O)N3CC(CCl)c4ccc(N)cc43)cc2c1 (stereo not given) | 0.565 µM (active) | 0.12 µM (active) | 0.084 µM (active) | 2.25 µM (inactive) | < 0.0215 µM (active) | 0.0395 µM (active) | 0.0225 µM (active) | 0.0471 µM (active) | 0.019 µM (active) | 0.0366 µM (active) |  | 0.0299 µM (active) | 0.0161 µM (active) | 2.01 µM (inactive) | 0.118 µM (active) | 0.023 | 2.31 µM (inactive) | 0.0377 µM (active) | 0.0104 µM (active) | 0.0253 µM (active)
16 | O=C1/C(=C/c2ccc(F)cc2)CNC/C1=C\c1ccc(F)cc1 | 1.78 µM (inactive) | 1.71 µM (inactive) | 1.94 µM (inactive) | 0.664 µM (active) | 3.75 µM (inactive) | 1.65 µM (inactive) | 0.245 µM (active) | 0.63 µM (active) | 1.42 µM (inactive) | 1.12 µM (inactive) |  | 1.79 µM (inactive) | 4.6 µM (inactive) | 2.39 µM (inactive) | 0.214 µM (active) | 0.498 | 1.01 µM (active) | 2.95 µM (inactive) | 1.95 µM (inactive) | 0.813 µM (active)
17 | c1ccc(-c2ccnc3c2ccc2c(-c4ccccc4)ccnc23)cc1 | 1.89 µM (inactive) | 1.11 µM (active) | 0.664 µM (active) | 1.18 µM (inactive) | 2.92 µM (inactive) | 2.47 µM (inactive) | 0.621 µM (active) | 2.31 µM (inactive) | 0.736 µM (active) |  | 2.47 µM (inactive) |  |  |  |  | 1.06 |  |  |  | 
